Series [1] can be described thus: Plasma protein binding rate (ultrafiltration). The following applies: SD rat plasma. In kind it is in vitro ADME. As for the experimental part: Appropriate amount of SD rat plasma was taken and incubated with the specified concentration of compound at 37 °C for a specified time, and unbound compound solution was obtained by ultrafiltration method, and acetonitrile-containing internal standard compound was added to terminate the reaction, and the remaining compound was quantized by LC-MS to calculate the plasma protein binding rate. Calculation formula: Plasma protein binding rate (%) = (Total blood−Ultrafiltrate)/Total blood * 100%.

Another series is described as follows: Pharmacokinetic study. The following applies: rat, plasma, SD rats; for Vd: SD, 1 mg/kg. In kind it is in vivo. As for the experimental part: SKLB-D18 was formulated using a composition of 10% DMSO, 10% Solutol, and 80% (20% HP-β-CD). SKLB-D18 was administered via intravenous injection (1 mg/kg) and intragastric administration (10 mg/kg) on SD rats. At various time points post-administration (0.25 h, 0.5 h, 1 h, 2 h, 4 h, 6 h, 8 h, 24 h), blood samples (0.2 mL) were collected and centrifuged (6800 × g, 6 min, 2–8 °C) to separate plasma. Plasma samples were precipitated with methanol, vortexed, and centrifuged (18,000 × g, 4 °C, 7 min); the supernatant was analyzed using LC-MS/MS. Parameters such as AUC0-t, AUC0-∞, Cmax, Tmax, and T1/2 were calculated using Phoenix WinNonlin 7.0.

Series [2] is described as follows: Body weight and adverse effects in xenograft study. The following applies: 25 and 50 mg/kg orally daily for 16 days. In kind it is in vivo, nude mice (BALB/c-nu). As for the experimental part:
All procedures were performed in accordance with the Laboratory Animals Welfare Act, the Guide for the Care and Use of Laboratory Animals and the Guidelines and Policies. The rodent experiment was approved by IACUC (Institutional Animal Care and Use Committee) in the Experimental Animal Ethics Committee of West China Hospital (Approval No. 2021672A). 48 female nude mice (BALB/c-nu, 5 weeks, 15–18 g, purchased from Beijing HFK Bio-Technology Co., LTD) were acclimatized for one week in an SPF-grade animal facility (ventilated, 20–25 °C, 50–60% humidity). […] When the tumor volume reached approximately 100 mm^3 (V = L × W^2/2), the mice were randomly divided into six groups (n = 8 per group): (1) Control group (normal saline); (2) 25 mg/kg SKLB-D18-treated group; (3) 50 mg/kg SKLB-D18-treated group; (4) 50 mg/kg BVD-523-treated group; (5) 50 mg/kg XMD8-92-treated group; (6) BVD-523 (50 mg/kg) and XMD8-92 (50 mg/kg) combined treatment group. Drugs were freshly prepared with 5% DMSO, 10% Solutol HS-15, and 85% normal saline on the day of administration. Intragastric administration occurred once daily at the same time for 16 consecutive days. And the body weight and tumor volume of mice were measured every three days. After the administration period, all nude mice were euthanized by cervical dislocation the next day. […]

The subject of another series is MAPK2(h). The series is described as follows: Kinase profiling. The class given is biochemical, human. Conditions: 1 μM. As for the experimental part: 380 kinases inhibitory activities of SKLB-D18 were conducted by Eurofins Cerep SA. The result was illustrated by kinase tree (http://www.kinhub.org/kinmap/).
The next series concerns the target ERK5 (Homo sapiens, UniProt Q13164). The series is described as follows: Isothermal titration calorimetry (ITC) assay. The class given is binding. Conditions: 25 °C. Also noted: ERK5 (residues 48–395) containing His and GST tags was cloned into the pFastBac vector; His (cleaved yes); GST (cleaved yes); made in house; host or cells: Sf9 insect cells (baculovirus). As for the experimental part: The full-length human ERK1 or ERK2 with His-tag was cloned into a pET28a vector. hERK1/2 were expressed in Escherichia coli BL21(DE3), and then were purified using sequential Ni-NTA and Superdex 200 column steps. The SEC purified sample was then concentrated to 10 mg/ml and stored at −80 °C with buffer containing 20 mM HEPES pH 7.5, 150 mM NaCl. ERK5 (residues 48–395) containing His and GST tags was cloned into the pFastBac vector, and the recombinant plasmid was extracted. The recombinant plasmid was transformed into the DH10bac strain, and monoclonal was selected for culture. The recombinant Bacmid was then extracted according to the instructions of the Baculovirus Shuttle Vector Bacmid Mini Preparation Kit (Beyotime) and validated by PCR. 1 × 10^6/well Sf9 cells were counted for transfection and then amplified to obtain P3 ERK5 recombinant baculovirus. It was added to 2 × 10^6/mL Sf9 cells and incubated at 27 °C for 72 h on a shaker to express ERK5. Cells were lysed and supernatant was collected on a Ni-NTA for purification, and a 250 mM imidazole eluate was collected. […]
Calorimetric experiments were carried on an Affinity ITC (Waters, Shanghai) with 1 mM SKLB-D18 and 0.1 mM ERK1/2/5. […] The data were analyzed with the NanoAnalyze software employing a single binding site model. […]
For orientation: Isothermal titration calorimetry measures the heat released or taken up as one component is titrated into another.

What is called fraction unbound is the share of the substance not bound to proteins or other matrix. Low values mean extensive binding, high ones weak binding. As usually defined, the AUC(0-inf) is total exposure, with the tail of the curve extrapolated. A low value points to low exposure. The term AUC(0-t) denotes exposure summed from dosing to a finite time, without extrapolation to infinity. For orientation: Cmax means the peak of the concentration-time curve. For orientation: half-life means the time needed for the level to fall by half in the phase considered. Low values mean rapid decline, high ones slow decline. The bioavailability is dose-corrected exposure relative to a reference, in per cent. A higher bioavailability goes with much systemic uptake. One may read the Kd as the constant that tells how readily two partners part at equilibrium. The low end stands for a tighter complex, the high end for a looser complex.

The structures appear in SMILES notation. Read-outs that look alike come from different tables or passages of the source.

ERK5, sequence (Q13164 48-395): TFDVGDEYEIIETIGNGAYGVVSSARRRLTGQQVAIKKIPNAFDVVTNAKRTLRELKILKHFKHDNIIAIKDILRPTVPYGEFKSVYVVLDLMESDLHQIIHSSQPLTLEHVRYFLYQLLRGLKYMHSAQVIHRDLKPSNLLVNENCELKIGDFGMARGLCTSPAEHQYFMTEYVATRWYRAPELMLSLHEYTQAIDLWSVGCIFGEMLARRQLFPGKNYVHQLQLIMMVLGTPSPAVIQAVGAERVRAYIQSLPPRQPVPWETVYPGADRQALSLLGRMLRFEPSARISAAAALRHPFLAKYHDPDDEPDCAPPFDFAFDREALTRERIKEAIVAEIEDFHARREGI

Regarding `CN(C)Cc1cccc(Nc2ncc(Cl)c(-c3csc(C(=O)NN4CCOCC4)c3)n2)c1` [SKLB-D18, 4-(5-chloro-2-((3-((dimethylamino)methyl)phenyl)amino)pyrimidin-4-yl)-N-morpholinothiophene-2-carboxamide], the fraction unbound in series [1] was 0.816. Besides, the Vd in the series “Pharmacokinetic study” (iv, i.v. 1 mg/kg, read-out: Vss) amounted to 17 ± 0.568 L/kg. The Vd in the series “Pharmacokinetic study” (iv, i.v. 1 mg/kg, read-out: Vz) turned out to be 20.2 ± 1.38 L/kg. In “Pharmacokinetic study” (iv, i.v. 1 mg/kg), the AUC(0-inf) turned out to be 143 ± 6.6 ng·h/mL, the AUC(0-t) came out at 136 ± 5.73 ng·h/mL, the highest concentration (Cmax) was found to be 58.7 ± 7.22 ng/mL and the half-life was 121 ± 9.6 min. For the same molecule, the clearance in “Pharmacokinetic study” (iv, i.v. 1 mg/kg, read-out: CL (mL/(min·kg))) stood at 117 ± 5.45 mL/min/kg. The bioavailability in the series “Pharmacokinetic study” (oral, p.o. 10 mg/kg vs i.v. 1 mg/kg) is 22.4%. In “Pharmacokinetic study” (po, p.o. 10 mg/kg), the AUC(0-inf) came out at 457 ng·h/mL, the AUC(0-t) was found to be 304 ng·h/mL, the highest level (Cmax) was 53.7 ng/mL and the half-life is 223 min. Also, the “weight loss or adverse effects” value in series [2] is “No significant weight loss or adverse effects”. For the same molecule, the Inhibition% in the series with MAPK2(h) is reported as 56%. On ERK5, this molecule returned a dissociation constant Kd of 468 nM.

These data come from publication PMC11842588, “A first-in-class selective inhibitor of ERK1/2 and ERK5 overcomes drug resistance with a single-molecule strategy” (Signal Transduction and Targeted Therapy, 2025).
